The text below walks through data of patent US8173631B2, “Cyclic amine compounds” (Daiichi Sankyo Company, Limited, priority 2008, dated 2012).

The target in this assay is T1, human calcium-sensing receptor (CaSR) (Homo sapiens, UniProt P41180).
T1 construct: expressed in transfected cells
T1 sequence (P41180 20-1078): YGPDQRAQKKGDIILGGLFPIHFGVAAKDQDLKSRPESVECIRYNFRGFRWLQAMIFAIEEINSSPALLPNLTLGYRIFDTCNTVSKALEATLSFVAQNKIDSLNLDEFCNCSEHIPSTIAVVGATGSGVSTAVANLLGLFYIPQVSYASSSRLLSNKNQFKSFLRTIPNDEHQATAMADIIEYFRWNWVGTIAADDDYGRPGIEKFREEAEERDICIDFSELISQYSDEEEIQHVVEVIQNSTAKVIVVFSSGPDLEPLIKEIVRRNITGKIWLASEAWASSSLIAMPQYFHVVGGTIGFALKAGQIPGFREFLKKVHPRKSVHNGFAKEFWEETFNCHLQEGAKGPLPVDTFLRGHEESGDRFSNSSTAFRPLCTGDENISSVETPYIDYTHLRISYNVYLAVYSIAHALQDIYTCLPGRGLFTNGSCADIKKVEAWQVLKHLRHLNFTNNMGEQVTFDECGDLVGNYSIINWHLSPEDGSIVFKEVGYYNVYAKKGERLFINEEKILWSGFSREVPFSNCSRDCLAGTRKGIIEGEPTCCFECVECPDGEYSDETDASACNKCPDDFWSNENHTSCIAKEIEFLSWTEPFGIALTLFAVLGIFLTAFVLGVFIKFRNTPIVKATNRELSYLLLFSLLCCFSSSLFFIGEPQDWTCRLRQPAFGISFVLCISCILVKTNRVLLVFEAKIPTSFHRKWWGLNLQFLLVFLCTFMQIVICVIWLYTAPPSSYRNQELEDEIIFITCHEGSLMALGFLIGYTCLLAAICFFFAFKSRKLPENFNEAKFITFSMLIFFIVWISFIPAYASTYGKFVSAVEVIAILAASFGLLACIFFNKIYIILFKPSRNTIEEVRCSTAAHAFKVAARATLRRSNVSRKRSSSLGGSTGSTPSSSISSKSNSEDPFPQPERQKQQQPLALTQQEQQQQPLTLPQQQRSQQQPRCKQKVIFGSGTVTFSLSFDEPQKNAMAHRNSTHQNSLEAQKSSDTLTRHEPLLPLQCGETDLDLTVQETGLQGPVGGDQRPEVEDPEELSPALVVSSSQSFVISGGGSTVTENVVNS
Description: Inhibitory activity on calcium-sensing receptor (CaSR), intracellular calcium increase as indicator (FLIPR, CHO/hCaSR). Format: cell-based. The following applies: CHO cells stably expressing human CaSR; inhibition of intracellular Ca increase induced by extracellular CaCl2. On the procedure:
Evaluation of inhibitory activity on calcium-sensing receptor (CaSR) using intracellular calcium increase as an indicator
The preparation which is prepared by adding CHO/hCaSR to F12 medium (manufactured by Invitrogen) containing 10% fetal bovine serum to have 2×10^5 cells/mL was applied to a 384-well in an amount of 50 μL/well, and then incubated overnight in a CO2 incubator. The culture supernatant was completely removed, the assay buffer (20 mM HEPES, HBSS (Ca and Mg free) containing 2.5 mM probenecid, pH 7.4) containing Calcium 3 (manufactured by Molecular Devices), i.e., a fluorescent intracellular calcium indicator, was added thereto in an amount of 25 μL/well, and the mixture was maintained for 1 hour in a CO2 incubator. Meanwhile, Calcium 3 was prepared according to the protocol enclosed in FLIPR Calcium 3 Assay Kit (manufactured by Molecular Devices). After maintaining it for 1 hour, a solution in which the test compound is prepared to have 2.1 to 20,000 nM (final concentration of 1.05 to 10,000 nM) by an assay buffer was added thereto in an amount of 25 μL/well, and maintained for 15 minutes in a CO2 incubator. Then, the CaCl2 solution prepared to have […] by using the assay buffer was added in an amount of 25 μL/well, and the resulting intracellular Ca increase (i.e., fluorescence intensity) was measured over time using a fluorescence imaging plate reader (FLIPR, manufactured by Molecular Devices). From the data obtained, the difference between the fluorescence intensity before the addition of CaCl2 solution and the maximum fluorescence intensity after the addition of CaCl2 solution was calculated, and the 50% inhibition concentration (IC50) of the test compound was obtained.
(Calcium assays in cells follow changes in intracellular calcium, usually with a dye or a luminescent sensor.)
For the molecule `CC[C@@H](OC[C@H](O)CN1CCC[C@H]1Cc1ccc(Cl)c(Cl)c1)c1cccc(OC)c1CCC(=O)O` [Example 115], the concentration for half-maximal inhibition (IC50) (commonly the concentration at which inhibition is half-maximal) is at most 3.05 µM.

Take `CCc1cc(C[C@@H]2CCCN2C[C@@H](O)CO[C@H](CC)c2cccc(OC)c2CCC(=O)O)ccc1Cl` [Example 116]: the IC50 was at most 3.09 µM.

Consider `CC[C@@H](OC[C@H](O)CN1CCC[C@H]1Cc1ccc(Cl)c(Cl)c1)c1cc(F)c(F)cc1CCC(=O)O` [Example 117], for which the IC50 was at most 3.02 µM.

For `CC[C@@H](OC[C@H](O)CN1CCC[C@H]1Cc1ccc(Cl)c(Cl)c1)c1cc(F)c(C)cc1CCC(=O)O` [Example 118], the IC50 was at most 3.04 µM.

Turning to `CCc1cc(C[C@@H]2CCCN2C[C@@H](O)CO[C@H](CC)c2cc(F)c(C)cc2CCC(=O)O)ccc1Cl` [Example 119], the IC50 was at most 3.08 µM.

For the molecule `CC[C@@H](OC[C@H](O)CN1CCC[C@H]1Cc1ccc(Cl)c(Cl)c1)c1cccc(C)c1CCC(=O)O` [Example 120], the IC50 is at most 3.15 µM.

`CCc1cc(C[C@@H]2CCCN2C[C@@H](O)CO[C@H](CC)c2cc(F)c(F)cc2CCC(=O)O)ccc1Cl` [Example 121]: the IC50 was at most 3.05 µM.

With `CCc1cc(C[C@@H]2CCCN2C[C@@H](O)CO[C@H](CC)c2cccc(C)c2CCC(=O)O)ccc1Cl` [Example 122], the IC50 was at most 3.19 µM.

For `CCC[C@@H](OC[C@H](O)CN1CCC[C@H]1Cc1ccc(C)c(F)c1)c1cc(Cl)ccc1CCC(=O)O` [Example 123], the IC50 is at most 3.16 µM.

Turning to `CCC[C@@H](OC[C@H](O)CN1CCC[C@H]1Cc1ccc(C)c(F)c1)c1ccc(Cl)cc1CCC(=O)O` [Example 124], the IC50 was at most 3.16 µM.

Take `CCC[C@@H](OC[C@H](O)CN1CCC[C@H]1Cc1ccc(C)c(F)c1)c1cccc(Cl)c1CCC(=O)O` [Example 125]: the IC50 is at most 3.16 µM.

For the molecule `Cc1ccc([C@@H](C)OC[C@H](O)CN2CCC[C@H]2Cc2ccc(C)c(Cl)c2)c(CCC(=O)O)c1` [Example 126], the IC50 is at most 3.38 µM.

For `Cc1ccc(C[C@@H]2CCCN2C[C@@H](O)CO[C@H](C)c2ccc(Cl)cc2CCC(=O)O)cc1Cl` [Example 127], the IC50 is at most 3.24 µM.

As for `Cc1ccc([C@@H](C)OC[C@H](O)CN2CCC[C@H]2Cc2ccc(Cl)c(F)c2)c(CCC(=O)O)c1` [Example 128], the IC50 was at most 3.35 µM.

For the molecule `CC[C@@H](OC[C@H](O)CN1CCC[C@H]1Cc1ccc(C)c(Cl)c1)c1ccc(Cl)cc1CCC(=O)O` [Example 129], the IC50 was at most 3.15 µM.

As for `C[C@@H](OC[C@H](O)CN1CCC[C@H]1Cc1ccc(Cl)c(F)c1)c1cc(F)ccc1CCC(=O)O` [Example 130], the half-maximal inhibitory concentration (IC50) is at most 3.32 µM.

Consider `C[C@@H](OC[C@H](O)CN1CCC[C@H]1Cc1ccc(Cl)c(F)c1)c1ccc(Cl)cc1CCC(=O)O` [Example 131], for which the IC50 was at most 3.21 µM.

Take `Cc1ccc(C[C@@H]2CCCN2C[C@@H](O)CO[C@H](C)c2cc(F)cc(F)c2CCC(=O)O)cc1Cl` [Example 132]: the IC50 is at most 3.23 µM.

As for `C[C@@H](OC[C@H](O)CN1CCC[C@H]1Cc1ccc(Cl)c(F)c1)c1cc(F)cc(F)c1CCC(=O)O` [Example 133], the IC50 was at most 3.2 µM.

As for `CC[C@@H](OC[C@H](O)CN1CCC[C@H]1Cc1ccc(C)c(Cl)c1)c1cc(F)ccc1CCC(=O)O` [Example 134], the concentration for half-maximal inhibition (IC50) was at most 3.25 µM.

With `CC[C@@H](OC[C@H](O)CN1CCC[C@H]1Cc1ccc(Cl)c(F)c1)c1cc(F)ccc1CCC(=O)O` [Example 135], the IC50 was at most 3.23 µM.

For `CC[C@@H](OC[C@H](O)CN1CCC[C@H]1Cc1ccc(C)c(Cl)c1)c1ccc(C)cc1CCC(=O)O` [Example 136], the IC50 is at most 3.28 µM.

Turning to `CC[C@@H](OC[C@H](O)CN1CCC[C@H]1Cc1ccc(Cl)c(F)c1)c1ccc(Cl)cc1CCC(=O)O` [Example 137], the IC50 was at most 3.12 µM.

As for `CC[C@@H](OC[C@H](O)CN1CCC[C@H]1Cc1ccc(C)c(Cl)c1)c1cccc(F)c1CCC(=O)O` [Example 138], the IC50 is at most 3.25 µM.

Turning to `CC[C@@H](OC[C@H](O)CN1CCC[C@H]1Cc1ccc(Cl)c(F)c1)c1cccc(F)c1CCC(=O)O` [Example 139], the half-inhibitory concentration (IC50) was at most 3.23 µM.

Consider `CC[C@@H](OC[C@H](O)CN1CCC[C@H]1Cc1ccc(C)c(Cl)c1)c1cc(F)cc(F)c1CCC(=O)O` [Example 140], for which the half-inhibitory concentration (IC50) was at most 3.14 µM.

On to `CC[C@@H](OC[C@H](O)CN1CCC[C@H]1Cc1ccc(Cl)c(F)c1)c1cc(F)cc(F)c1CCC(=O)O` [Example 141], for which the IC50 is at most 3.11 µM.

As to `CC[C@@H](OC[C@H](O)CN1CCC[C@H]1Cc1ccc(C)c(Cl)c1)c1cccc(Cl)c1CCC(=O)O` [Example 142], the IC50 is at most 3.15 µM.

On to `CC[C@@H](OC[C@H](O)CN1CCC[C@H]1Cc1ccc(Cl)c(F)c1)c1cccc(Cl)c1CCC(=O)O` [Example 143], for which the IC50 is at most 3.12 µM.

Regarding `CC[C@@H](OC[C@H](O)CN1CCC[C@H]1Cc1ccc(C)c(Cl)c1)c1cc(F)c(F)cc1CCC(=O)O` [Example 144], the IC50 was at most 3.14 µM.

With `CC[C@@H](OC[C@H](O)CN1CCC[C@H]1Cc1ccc(Cl)c(F)c1)c1cc(F)c(F)cc1CCC(=O)O` [Example 145], the half-maximal inhibitory concentration (IC50) is at most 3.11 µM.

As for `CCc1cc(C[C@@H]2CCCN2C[C@@H](O)CO[C@H](C)c2cc(F)c(C)cc2CCC(=O)O)ccc1Cl` [Example 146], the IC50 was at most 3.16 µM.

As to `CCc1cc(C[C@@H]2CCCN2C[C@@H](O)CO[C@H](C)c2cc(F)c(F)cc2CCC(=O)O)ccc1Cl` [Example 147], the IC50 is at most 3.14 µM.

For `Cc1cc(CCC(=O)O)c([C@@H](C)OC[C@H](O)CN2CCC[C@H]2Cc2ccc(Cl)c(F)c2)cc1F` [Example 148], the IC50 is at most 3.23 µM.

Regarding `C[C@@H](OC[C@H](O)CN1CCC[C@H]1Cc1ccc(Cl)c(F)c1)c1cc(F)c(F)cc1CCC(=O)O` [Example 149], the IC50 was at most 3.2 µM.

For the molecule `Cc1ccc(C[C@@H]2CCCN2C[C@@H](O)CO[C@H](C)c2cccc(Cl)c2CCC(=O)O)cc1Cl` [Example 150], the IC50 is at most 3.24 µM.

Turning to `C[C@@H](OC[C@H](O)CN1CCC[C@H]1Cc1ccc(Cl)c(Cl)c1)c1cccc(Cl)c1CCC(=O)O` [Example 151], the IC50 is at most 3.11 µM.

Regarding `CCc1cc(C[C@@H]2CCCN2C[C@@H](O)CO[C@H](C)c2cccc(Cl)c2CCC(=O)O)ccc1Cl` [Example 152], the IC50 is at most 3.15 µM.

For the molecule `C[C@@H](OC[C@H](O)CN1CCC[C@H]1Cc1ccc(Cl)c(F)c1)c1cccc(Cl)c1CCC(=O)O` [Example 153], the IC50 is at most 3.21 µM.

For the molecule `CC[C@@H](OC[C@H](O)CN1CCC[C@H]1Cc1ccc(C)c(F)c1)c1cc(F)c(F)cc1CCC(=O)O` [Example 154], the IC50 was at most 3.24 µM.

Take `CC[C@@H](OC[C@H](O)CN1CCC[C@H]1Cc1ccc(C)c(F)c1)c1cc(F)cc(F)c1CCC(=O)O` [Example 155]: the IC50 is at most 3.24 µM.

As to `Cc1ccc(C[C@@H]2CCCN2C[C@@H](O)CO[C@H](C)c2cc(F)c(Cl)cc2CCC(=O)O)cc1F` [Example 156], the IC50 is at most 3.23 µM.

Consider `Cc1ccc(C[C@@H]2CCCN2C[C@@H](O)COC(C)c2c(Cl)cccc2CCC(=O)O)cc1F` (stereo partly shown) [Example 157], for which the IC50 is at most 3.35 µM.

Consider `C[C@@H](OC[C@H](O)CN1CCC[C@H]1Cc1ccc(Cl)c(F)c1)c1ccccc1CCC(=O)O` [Example 159], for which the 50% inhibitory concentration (IC50) was at most 3.45 µM.

For `C[C@@H](OC[C@H](O)CN1CCC[C@H]1Cc1ccc(Cl)c(Cl)c1)c1ccc(Cl)cc1CCC(=O)O` [Example 160], the IC50 is at most 3.11 µM.

With `CCc1cc(C[C@@H]2CCCN2C[C@@H](O)CO[C@H](C)c2ccc(Cl)cc2CCC(=O)O)ccc1Cl` [Example 161], the IC50 was at most 3.15 µM.
